Activity calls are given as the source filed them. No cut-off for these calls is given here.
Columns and labels:
[1] = biological target: Intercellular adhesion molecule 1 (Homo sapiens) (UniProt P05362); assay: Inhibition of sICAM1/LFA1 interaction-mediated human THP1 cell adhesion at 12.50 ug/mL after 1 hr by ELISA; assay type: cell-based; settings: THP-1
[2] = biological target: Intercellular adhesion molecule 1 (Homo sapiens) (UniProt P05362); assay: Inhibition of sICAM1/LFA1 interaction-mediated human THP1 cell adhesion at 6.25 ug/mL after 1 hr by ELISA; assay type: cell-based; settings: THP-1
[3] = biological target: Intercellular adhesion molecule 1 (Homo sapiens) (UniProt P05362); assay: Inhibition of sICAM1/LFA1 interaction-mediated human THP1 cell adhesion at 25 ug/mL after 1 hr by ELISA; settings: THP-1
Mus musculus = species: Mus musculus; assay: Antiinflammatory activity in mouse; assay type: functional, organism-based
THP-1 = assay: Cytotoxicity against human THP1 cells assessed as cell viability at 3.13 to 25.00 ug/mL by MTT assay; assay type: cell-based
[4] = biological target: Intercellular adhesion molecule 1 (Homo sapiens) (UniProt P05362); assay: Inhibition of sICAM1/LFA1 interaction-mediated human THP1 cell adhesion at 3.13 ug/mL after 1 hr by ELISA; assay type: cell-based; settings: THP-1

Sequence of Intercellular adhesion molecule 1 (Homo sapiens) (P05362 whole entry): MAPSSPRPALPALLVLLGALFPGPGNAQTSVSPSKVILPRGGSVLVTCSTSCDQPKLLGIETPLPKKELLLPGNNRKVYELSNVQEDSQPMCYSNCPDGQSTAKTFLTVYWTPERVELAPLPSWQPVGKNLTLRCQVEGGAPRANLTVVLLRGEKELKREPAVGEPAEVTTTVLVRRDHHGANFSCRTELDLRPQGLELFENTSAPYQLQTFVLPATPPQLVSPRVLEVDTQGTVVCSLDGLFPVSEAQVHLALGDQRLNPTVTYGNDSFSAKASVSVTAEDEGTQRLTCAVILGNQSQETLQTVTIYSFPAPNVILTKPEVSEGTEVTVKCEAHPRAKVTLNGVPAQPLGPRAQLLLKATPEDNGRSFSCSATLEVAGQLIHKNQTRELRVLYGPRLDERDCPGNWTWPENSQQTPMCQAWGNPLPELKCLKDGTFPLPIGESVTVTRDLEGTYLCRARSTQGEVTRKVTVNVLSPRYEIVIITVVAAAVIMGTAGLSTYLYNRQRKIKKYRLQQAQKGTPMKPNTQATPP

inhibition [1]	inhibition [2]	inhibition [3]	inhibition [4]	Activity [4]	Activity [3]	Structure (SMILES)	Activity (Mus musculus)	Activity (THP-1)
70.2%	36.8%	93.8%	12.5%	–	–	O=C(/C=C/CCCC/C=C/c1ccc2c(c1)OCO2)N1CCCCC1 [PIPERNONALINE]	Active	Non-toxic
35.9%	29.9%	36%	–	inactive	–	CC(C)CNC(=O)/C=C/CCCC/C=C/c1ccc2c(c1)OCO2 [RETROFRACTAMIDE C]	Active	Non-toxic
46.5%	28.5%	67.6%	16.2%	–	–	O=C(CCCCCC/C=C/c1ccc2c(c1)OCO2)N1CCCCC1 [PIPERROLEIN B]	Active	Non-toxic
46.4%	16.5%	80.6%	11.3%	–	–	CCCCC/C=C/C=C/C(=O)NCC(C)C [PELLITORIN]	Active	Non-toxic
26.9%	20.9%	42.6%	15.6%	–	–	CC(C)CNC(=O)/C=C/CCCCCC/C=C/c1ccc2c(c1)OCO2 [PIPERCHABAMIDE D]	Active	Non-toxic
58.4%	13.1%	92.1%	–	inactive	–	O=C(/C=C/C=C\CC/C=C/c1ccc2c(c1)OCO2)N1CCCCC1	Active	Non-toxic
61.4%	37.7%	–	–	inactive	inactive	CC[C@H](C)C(=O)O[C@H]1C[C@@H](C)C=C2C=C[C@H](C)[C@H](CC[C@@H]3C[C@@H](O)CC(=O)O3)[C@H]21	–	–
57.7%	52.5%	73.4%	30.1%	–	–	O=C(/C=C/C=C/CC/C=C/c1ccc2c(c1)OCO2)N1CCCCC1 [DEHYDROPIPERNOLINE]	Active	Non-toxic

Structure (SMILES)	inhibition [1]	inhibition [2]	inhibition [3]	inhibition [4]	Activity [4]	Activity [3]	Activity (Mus musculus)	Activity (THP-1)
CC(C)CNC(=O)/C=C/C=C/CCCCCC/C=C/c1ccc2c(c1)OCO2 [GUINEENSINE]	31.7%	14.9%	36.8%	–	inactive	–	Active	Non-toxic

Source: ChEMBL document CHEMBL1156593, “Alkamides from the fruits of Piper longum and Piper nigrum displaying potent cell adhesion inhibition” (Bioorg Med Chem Lett, 2008)
